Experimental findings from ChEMBL document CHEMBL2074098, “Estradiol 17 beta-D-glucuronide is a high-affinity substrate for oatp organic anion transporter” (Am J Physiol, 1996) are described below.

As usually defined, the Ki is a dissociation constant, usually derived from enzyme kinetics or from competition with a known ligand. A low value points to higher affinity. The term Km denotes the substrate concentration at which the rate is half of its maximum.

Data set [1] deals with T1, Solute carrier organic anion transporter family member 1A1 (Rattus norvegicus, UniProt P46720).
T1 sequence (P46720 whole entry): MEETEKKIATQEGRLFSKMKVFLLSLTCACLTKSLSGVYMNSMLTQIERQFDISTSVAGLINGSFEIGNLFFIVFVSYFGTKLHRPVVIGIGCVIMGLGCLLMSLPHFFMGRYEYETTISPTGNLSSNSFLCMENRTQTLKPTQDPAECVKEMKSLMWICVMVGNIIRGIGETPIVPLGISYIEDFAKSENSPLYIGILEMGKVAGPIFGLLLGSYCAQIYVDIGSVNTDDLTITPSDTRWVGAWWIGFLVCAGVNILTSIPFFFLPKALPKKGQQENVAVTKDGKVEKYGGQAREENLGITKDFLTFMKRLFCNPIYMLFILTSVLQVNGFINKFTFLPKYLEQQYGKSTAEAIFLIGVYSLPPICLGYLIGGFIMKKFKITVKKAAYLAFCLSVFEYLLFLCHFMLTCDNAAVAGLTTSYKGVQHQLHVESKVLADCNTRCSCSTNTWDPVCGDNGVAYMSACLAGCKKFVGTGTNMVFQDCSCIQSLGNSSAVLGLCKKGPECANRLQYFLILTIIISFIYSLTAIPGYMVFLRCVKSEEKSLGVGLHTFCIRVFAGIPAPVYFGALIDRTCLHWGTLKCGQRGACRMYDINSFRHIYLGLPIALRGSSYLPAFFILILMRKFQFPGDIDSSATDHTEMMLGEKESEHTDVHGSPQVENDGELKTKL
The experiment in a line: TP_TRANSPORTER: inhibition of E217betaG uptake in Oatp1-expressing HeLa cells. It counts as functional, cell-based.

Substrate in data set [2]: C[C@]12CC[C@@H]3c4ccc(O)cc4CC[C@H]3[C@@H]1CC[C@@H]2O[C@@H]1O[C@H](C(=O)O)[C@@H](O)[C@H](O)[C@H]1O
The experiment in a line: TP_TRANSPORTER: uptake in Oatp1-expressing HeLa cells. It counts as functional, cell-based.

In the case of `C[C@]12CC[C@@H]3c4ccc(O)cc4CC[C@H]3[C@@H]1C[C@@H](O)[C@@H]2O` [ESTRIOL], the affinity in data set [1] corresponds to a Ki of 9.8 µM. With `C[C@]12C[C@H](O)[C@H]3[C@@H](CCC4=CC(=O)CC[C@@]43C)[C@@H]1CC[C@@H]2C(=O)CO` [CORTICOSTERONE], in data set [1], the affinity corresponds to a Ki of 5.3 µM.

Turning to `C[C@]12CC[C@@H](OS(=O)(=O)O)C[C@@H]1CC[C@@H]1[C@@H]2CC[C@]2(C)C(=O)CC[C@@H]12`, the Ki in data set [1] is 2.4 µM. In turn, `C[C@]12CC[C@@H]3c4ccc(O)cc4CC[C@H]3[C@@H]1CC[C@@H]2O` [ESTRADIOL] yielded a Ki in data set [1] of 4.7 µM. With `C[C@]12CC[C@@H]3c4ccc(O[C@@H]5O[C@H](C(=O)O)[C@@H](O)[C@H](O)[C@H]5O)cc4CC[C@H]3[C@@H]1CC[C@@H]2O`, in data set [1], the affinity corresponds to a Ki of 9.7 µM. `C[C@]12CC[C@@H]3c4ccc(O)cc4CC[C@H]3[C@@H]1CCC2=O` [ESTRONE]: the Ki in data set [1] stood at 15.7 µM. Molecule `C[C@]12CC[C@@H](O)C[C@@H]1CC[C@@H]1[C@@H]2CC[C@]2(C)C(=O)CC[C@@H]12` [ANDROSTERONE] showed a Ki in data set [1] of 10.6 µM. Same read-out and setting: the value for `C[C@]12CC[C@@H]3c4ccc(OS(=O)(=O)O)cc4CC[C@H]3[C@@H]1CC[C@@H]2O` was 1.1 µM; that for `C[C@]12C[C@H](O)[C@H]3[C@@H](CCC4=CC(=O)CC[C@@]43C)[C@@H]1CC[C@@H]2C(=O)COS(=O)(=O)O` was 1.6 µM; that for `C[C@]12CC[C@@H]3c4ccc(O)cc4CC[C@H]3[C@@H]1CC[C@@]2(O)CC(=O)O` was above 200 µM. As for `C[C@]12CC[C@H]3[C@@H](CCC4=CC(=O)CC[C@@]43C)[C@@H]1CC[C@@H]2O[C@@H]1O[C@H](C(=O)O)[C@@H](O)[C@H](O)[C@H]1O`, in data set [1], the Ki was determined as 3.8 µM. In data set [1], `CC(=O)O[C@@H]1CC[C@@]2(C)[C@@H](CC[C@@H]3[C@@H]2CC[C@]2(C)C(=O)CC[C@@H]32)C1` [ANDROSTERONE ACETATE] yielded a Ki of 76.2 µM.

In turn, `C[C@]12CC[C@H]3[C@@H](CCC4=CC(=O)CC[C@@]43C)[C@@H]1CC[C@@H]2O` [TESTOSTERONE] gave a Ki in data set [1] of 5.4 µM. In data set [1], `C#C[C@]1(OS(=O)(=O)O)CC[C@H]2[C@@H]3CCc4cc(O)ccc4[C@H]3CC[C@@]21C` came in with a Ki of 1.3 µM. Take `C[C@]12CC[C@@H]3c4ccc(OS(=O)(=O)O)cc4CC[C@H]3[C@@H]1CCC2=O` [ESTRONE SULFURIC ACID]: in data set [1], the Ki was 1.3 µM.

B1: Solute carrier organic anion transporter family member 1A1 (Rattus norvegicus) (protein)
chain: T1 sequence (P46720 whole entry)
For B1, the Km in data set [2] was found to be 3.2 µM.
